According to patent publication US11420967B2 (priority 2018, dated 2022):
pEC50: −log10 of the molar value.

Legend:
Off target profile = settings: tested at 1 μM
Description: Finally, the safety profile of compound 19 was evaluated. Specifically, the experimental toxicity study of i.p. injection of compound 19 compared to compound 20 was evaluated in rodents and off-targets. No-observed-adverse-effect-level (NOAEL) at 20 mg/kg bdip of compound 19 was found when analyzing the histopathology of 22 organs after repeated (28 days) mouse administration.

[1] = tested on: MT assembly in Hct116 cells; assay: MT assembly rate in Hct116 cells (GFP-EB3 real-time fluorescence microscopy); type: cell-based
Description: FIG. 26 illustrates MT assembly rate in Hct116 cells in culture were measured by following GFP-EB3 fluorescent signal by real-time fluorescence microscopy (basal pre-drug represented with gray dots). […] Each dot represents MT assembly rate in one cell. Lower ***, P<0.001 and **, P<0.01 compared with pre-drug; one-way ANOVA with the Tukey post-hoc test. Data are the mean±SEM.

[2] = tested on: resistant patient-derived melanocytes expressing BRAF mutations (V600E); assay: Combination with PLX4032 in resistant patient-derived melanocytes (BRAF V600E); type: cell-based, human; settings: PLX4032 1 μM; low concentrations of 19
HepG2 (liver) = assay: Cell-killing activity in liver HepG2 cells (WST-1), test for potential liver toxicity; type: cell-based, human
Description: To explore further the therapeutic potential of the compounds of the disclosure, the antitumor activity in human patient-derived GBM (PD-GBM) cells was measured in culture. Specifically, these cells represent a recognized preclinical model system for testing for the efficacy of novel treatments of GBM as they are categorized by their mutation profile in three subtypes (i.e., proneural, mesenchymal and classical) that may differentially respond to treatment. To test for potential liver toxicity, the human liver cell line HepG2, a commonly used cell culture model system, was treated. […] Cell viability was measured using WST-1 72 hours after treatment. Maximal killing activity was measured at 5.6 μM. Data are the mean of at least three independent experiments performed in triplicate. Not converged (NC).
Cell culture. Cells were cultured in DMEM supplemented with 10% FBS, 100 U/mL penicillin, and 100 μg/mL streptomycin at 37° C. in a 5% CO2 humidified atmosphere. T98G and HepG2 cells (ATCC, Manassas, Va.) were authenticated by ATCC when purchased using human short tandem repeat analysis and maintained in culture for less than 6 months. Tumors were obtained from surgeries performed at the Swedish Medical Center (Seattle, Wash.) according to Institutional Review Board guidelines. Patient samples used in this study were diagnosed as WHO grade IV glioblastoma multiforme. Patient-derived GBM cells were established from the freshly resected tumor tissues and maintained in NeuroCult® NSA medium (Stem Cell Technologies) with B-27 serum-free supplement, 20 ng/mL epidermal growth factor and 20 ng/mL fibroblast growth factor 2 as previously described.
Cell viability. WST-1 (Roche, Pleasanton, Calif.) was used to evaluate cell viability as previously described 72 hours following drug treatment according to the manufacturer's protocol. Maximal % killing was calculated as the % reduction in cell viability measured at all drug concentration. EC50 values were calculated and reported only when a curve was reliably extrapolated by Prism software. The solvent for all modified carbazoles was DMSO (0.1% final). This solvent (negative reference, vehicle control) had no effect on cell viability.

SMILES | off-targets interacted with (Off target profile) | effect on MT assembly rate (in words) ([1]; 200 nM, reversible after 30 min wash) | effect on MT assembly rate (in words) ([1]; 50 and 100 nM, reversible after 15 min wash) | combination with PLX4032 (in words) [2] | maximal killing (% ± SEM) (HepG2 (liver); HepG2 (liver), at 0.6 μM) | pEC50 (HepG2 (liver); Homo sapiens, HepG2, 72 h)
CCn1c2ccccc2c2cc(C(O)c3cccc4ncccc34)ccc21 (racemic) [Compound 19, (9-ethyl-9H-carbazol-3-yl)(quinolin-5-yl)methanol] | less than 5% | fully stops MT assembly | significantly reduce MT assembly | Synergistic activity | – | –
CCn1c2ccccc2c2cc(C(=O)c3cccc4ncccc34)ccc21 [Compound 20, 9-ethyl-3-(quinoline-5-carbonyl)-9H-carbazole] | – | – | – | – | 28.6% ± 13.9 | 7.18
